Data as given in patent US7696234B2, “Histamine H3 receptor agents, preparation and therapeutic uses” (Eli Lilly and Company, priority 2004, dated 2010).

Biological target: T1, H3R membranes (human histamine 3 receptor) (Homo sapiens, UniProt Q9Y5N1)
T1 construct: expressed in transfected cells; pcDNA3.1(+) vector, G418 selection)
Assay: [35S] GTP γ [S] Binding Assay
Format: biochemical
Conditions: inhibition of [35S]GTPγS binding to membranes from H3R8-expressing HEK293 cells in the presence of agonist R(−)alpha methylhistamine
Experimental: Membranes isolated as described in (Preparation of Histamine Receptor Subtype Membranes) were used in a [35S]GTPχS functional assay. Binding of [35S]GTPχS to membranes indicates agonist activity. Compounds of the invention of Formula I were tested for their ability to inhibit binding in the presence of agonists. Alternately, the same transfected cell lines were used for a cAMP assay wherein H3R agonists inhibited forskolin-activated synthesis of cAMP. Compounds of Formula I were tested for their ability to permit forskolin-stimulated cAMP synthesis in the presence of agonist. cDNA for the human histamine 3 receptor was cloned and expressed as described in (A. Preparation H1R membranes), above. Transfected cells were selected using G418 ([…]), grown, and tested for histamine binding by the SPA described above. For total binding, cells were assayed in a SPA reaction described above containing 50 mM Tris-HCL (assay buffer), pH 7.6, 1 mg wheat germ agglutinin SPA beads (Amersham Pharmacia Biotech, #RPNQ0001), and 1 nM (^3H)-n-alpha-methylhistamine (NEN, NET1027) (total volume per well=200 μl). Thioperimide was added to determine non-specific binding. Several clones were selected as positive for binding, and a single clone (H3R8) was used to prepare membranes for binding studies described above. […] Plates were counted in Wallac Trilux 1450 Microbeta scintillation counter for 1 minute. […]

T1 sequence (Q9Y5N1 whole entry): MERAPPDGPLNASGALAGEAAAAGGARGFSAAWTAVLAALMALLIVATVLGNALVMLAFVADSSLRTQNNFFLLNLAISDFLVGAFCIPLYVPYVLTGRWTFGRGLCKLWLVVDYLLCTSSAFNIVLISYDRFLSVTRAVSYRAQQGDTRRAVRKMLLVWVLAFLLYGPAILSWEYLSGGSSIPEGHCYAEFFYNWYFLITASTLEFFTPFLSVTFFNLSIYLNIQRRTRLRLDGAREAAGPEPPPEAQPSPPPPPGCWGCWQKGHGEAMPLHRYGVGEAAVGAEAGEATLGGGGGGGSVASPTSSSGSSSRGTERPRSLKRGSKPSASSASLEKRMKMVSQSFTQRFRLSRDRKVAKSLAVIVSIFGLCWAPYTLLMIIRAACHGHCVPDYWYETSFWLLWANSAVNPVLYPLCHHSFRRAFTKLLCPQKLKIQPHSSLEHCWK

SMILES | Ki
COc1ccc(COc2ccc(C(=O)N3CCC[C@H]3CN3CCCC3)cc2)cc1 | 19 nM
O=C(c1ccc(OCc2cnccn2)cc1)N1CCC[C@H]1CN1CCCC1 | 4.1 nM
